According to US20250188417A1, “CARDIOMYOCYTES AND COMPOSITIONS AND METHODS FOR PRODUCING THE SAME” (President and Fellows of Harvard College, priority 2021, published 2025):

Key:
[1] = system: iPSC-derived cardiomyocytes (CMs); experiment: Quiescence, cell cycle and TNNT2+ flow cytometry after Torin1 treatment; assay type: cell-based, human
Experimental: FIG. 10A provides a schematic of a differentiation protocol, with Torin1 treatment performed for 7 days starting ˜2 days after onset of beating, unless otherwise noted. FIG. 10B provides a western analysis of phospho-S6 and phospho-Akt at baseline and 30 minutes, and 2, 4, 10, 24, and 48 hours after a single treatment of iPSC-derived CMs with Torin1 (200 nM), BJRiPS-CMs. […] Torin1 treatment started on day 9, approximately 2 days after onset of CM beating, BJRiPS-CMs, n=3 per group per time point. […] DMSO, dimethylsulfoxide; IWP-4, inhibitor of Wnt production-4; RI, ROCK (Rho-associated, coiled coil containing protein kinase) inhibitor (Y-27632); RPMI, Roswell Park Memorial Institute 1640 medium.

BJRiPS-CMs [2] = experiment: qPCR of sarcomere genes and ion channels after Torin1 treatment; assay type: cell-based, human
Experimental: FIG. 11A provides qPCR of selected sarcomere genes (MYH6, MYH7, TNNT2, TNNI3) iPSC-derived cardiomyocytes after treatment with Torin1 (10 nM, 50 nM, or 200 nM) or vehicle control (0.02% DMSO) for 7 days starting ˜2 days after onset of beating. n=3 per condition, *p<0.05, ****p<0.001 by two-way ANOVA with Tukey's multiple comparisons test, BJRiPS-CMs. FIG. 11B provides representative of western blot analysis of TNNT2 and TNNI3 after Torin1 treatment for 7 days starting ˜2 days after onset of beating, β-tubulin depicted as loading control, Gibco iPS-CMs. […] FIG. 11D provides representative image of MTF in diastole and systole, with schematic of MTF on side view in diastole and systole. […]
FIG. 13A provides qPCR of selected ion channels (KCNJ2, CACNA1c, RY2, ATP2a2, SCN5a, HCN4) of iPSC-derived cardiomyocytes after treatment with Torin1 (10 nM or 200 nM) or vehicle control (0.02% DMSO) for 7 days starting ˜2 days after onset of beating. n=3 per group, *p<0.05, ****p<0.001 by two-way ANOVA with Tukey's multiple comparisons test, BJRiPS line. FIG. 13B provides flow cytometry analysis of mean fluorescence intensity of Kir2.1 (encoded by KCNJ2) after Torin1 treatment for 7 days starting ˜2 days after onset of beating. n=3 per group, *p<0.01 by unpaired t-test, BJRiPS line. […]

[3] = system: iPSC-derived cardiomyocytes; experiment: Muscular thin film (MTF) contractility; assay type: cell-based, human; conditions: Torin1 200 nM for 7 days; muscular thin films
Experimental: (§1) FIG. 11A provides qPCR of selected sarcomere genes (MYH6, MYH7, TNNT2, TNNI3) iPSC-derived cardiomyocytes after treatment with Torin1 (10 nM, 50 nM, or 200 nM) or vehicle control (0.02% DMSO) for 7 days starting ˜2 days after onset of beating. n=3 per condition, *p<0.05, ****p<0.001 by two-way ANOVA with Tukey's multiple comparisons test, BJRiPS-CMs. FIG. 11B provides representative of western blot analysis of TNNT2 and TNNI3 after Torin1 treatment for 7 days starting ˜2 days after onset of beating, β-tubulin depicted as loading control, Gibco iPS-CMs. […] FIG. 11D provides representative image of MTF in diastole and systole, with schematic of MTF on side view in diastole and systole. FIG. 11E provides representative force versus time plot of muscular thin film (MTF) seeded with iPSC-derived cardiomyocytes treated with Torin1 (200 nM) or vehicle for 7 days starting ˜2 days after onset of beating, BJRiPS-CMs. […] FIG. 11G provides representative immunostained images showing cardiomyocytes treated with or without Torin1 (200 nM×7 days), blue=DAPI, green=alpha-actinin, yellow=F-actin, magenta=TNNT2, BJRiPS-CMs, scale bar=10 μm. […] DMSO, dimethylsulfoxide; TBP, TATA-binding protein.

BJRiPS-CMs [4] = experiment: Sarcomere length by immunostaining; assay type: cell-based, human; conditions: Torin1 200 nM×7 days versus control; unpaired t-test; FIG. 11H
Experimental: as §1

BJRiPS-CMs [5] = experiment: Seahorse Mito Stress Test oxygen consumption rate; assay type: cell-based, human; conditions: Torin1 200 nM×7 days; normalized to baseline
Experimental: FIG. 12A provides a profile of average oxygen consumption rate normalized to baseline versus time as evaluated by the Seahorse Mito Stress Test. Open circles=control (n=70 wells), closed squares=Torin1 (69 wells, 200 nM×7 days; BJRiPS-CMs replated into Seahorse plate for 24-48 hours prior to assay), data from two independent experiments combined. […] FIG. 12F provides qPCR of selected genes associated with fatty acid metabolism (PPARGC1a (PGC1α), CD36, SLC27A1 (FATP1), SLC27A6 (FATP6), and LPIN1) or glucose metabolism (GLUT1, GLUT4, PFK, and PYGM) of BJRiPS-CMs after treatment with Torin1 (10 nM, 50 nM, or 200 nM) or vehicle control (0.02% DMSO) for 7 days starting ˜2 days after onset of beating. *p<0.05, **p<0.01, ***p<0.001, ****p<0.0001 by two-way ANOVA with Tukey's multiple comparison's test, n=3 per group. DMSO, dimethylsulfoxide; FCCP, 2-[2-[4-(trifluoromethoxy)phenyl]hydrazinylidene]-propanedinitrile.

BJRiPS-CMs [6] = experiment: Mitochondrial polarization (MitoProbe JC-1); assay type: cell-based, human; conditions: Torin1 200 nM for 7 days
UCSD-CMs = experiment: FluoVolt action potential profile; assay type: cell-based, human
Experimental: FIG. 13A provides qPCR of selected ion channels (KCNJ2, CACNA1c, RY2, ATP2a2, SCN5a, HCN4) of iPSC-derived cardiomyocytes after treatment with Torin1 (10 nM or 200 nM) or vehicle control (0.02% DMSO) for 7 days starting ˜2 days after onset of beating. n=3 per group, *p<0.05, ****p<0.001 by two-way ANOVA with Tukey's multiple comparisons test, BJRiPS line. FIG. 13B provides flow cytometry analysis of mean fluorescence intensity of Kir2.1 (encoded by KCNJ2) after Torin1 treatment for 7 days starting ˜2 days after onset of beating. n=3 per group, *p<0.01 by unpaired t-test, BJRiPS line. […] FIG. 13D provides representative images showing cell segmentation performed automatically by the CyteSeer software. Blue=Hoechst stain, Green=FluoVolt. […] CTD25 (25% duration of the calcium transient, or duration at 25% decline from maximum amplitude), CTD75 (75% duration of the calcium transient, or duration at 75% decline from maximum amplitude), T75-25 (time for voltage to decay from 75% to 25% of maximum). […] For Fluovolt data, control n=531 cells, Torin1 n=315 cells, analysis by unpaired t-test.

Gibco iPS-CM = experiment: Western blot of p53 after Torin1 treatment; assay type: cell-based, human; conditions: Torin1 10, 50 or 200 nM for 7 days
Experimental: (§2) FIG. 14A provides representative western blot of p53, phospho-53, p21 (CDKN1a), GATA4, NKX2.5, and β-tubulin from Gibco iPS-CM lysates treated with 0 (DMSO), 10, 50, or 200 nM Torin1 for 7 days starting ˜2 days after onset of beating. Cells harvested on final day of treatment. FIG. 14B provides cell cycle analysis showing percentage of TNNT2+ BJRiPS-CMs in G0, G1 or S/G2/M phases after treatment with vehicle (DMSO, dimethylsulfoxide), pifithrin-α (10 μM) for 1 week, Torin1 (200 nM) for 7 days or simultaneous treatment with pifithrin-α (10 μM) and Torin1 (200 nM) for 7 days starting ˜2 days after onset of beating. n=3 per group, *p<0.05, **p<0.01, ***p<0.001, ****p<0.0001 by two-way ANOVA with Tukey's multiple comparisons test. FIG. 14C provides representative western blot of p53, TNNI3, p21, and β-tubulin from BJRiPS-derived cardiomyocyte lysates treated with control (DMSO), Torin1 (200 nM), pifithrin-α (10 PM) or Torin1 (200 nM)+pifithrin-α (10 μM) for 7 days beginning ˜2 days after onset of beating. Cells harvested on final day of treatment.

PSC-CMs = conditions: inhibition of mTOR signaling during late differentiation; previously suggested; cited from earlier work
iPSC-CMs = experiment: Flow cytometry of marker expression and live cells in iPSC-CMs treated in 3D culture; assay type: cell-based, human
Experimental: The UCSD142i-86-1 cell line was used to generate preliminary data. UCSD142i-86-1 cells were differentiated into cardiomyocytes according to previously published protocols (9) adapted to three-dimensional culture in the laboratory. Two days after onset of beating (around day 9 of differentiation), cardiomyocytes were treated with vehicle (DMSO) or different concentrations of quercetin for different time periods. Cells were harvested for qPCR, western, or flow cytometry at different time points.

BJRiPS-CMs [7] = experiment: Western blot and densitometry (MDM2, p53, TNNI3) and cell cycle analysis of BJRiPS-derived cardiomyocytes; assay type: cell-based, human
Experimental: FIG. 6A provides a schematic showing proposed mechanism of cardiomyocyte maturation. T3, triiodothyronine. […] FIG. 6C provides representative Western blot of MDM2, p53, TNNI3, and β-tubulin from BJRiPS-derived cardiomyocyte lysates treated with control (DMSO), nutlin-3a Å˜24 hours (10 μmol/L), Torin1 Å˜7 days (200 nmol/L), or Torin1 Å˜7 days (200 nmol/L)+nutlin-3a (10 μmol/L) for 24 hours beginning ≈2 days after onset of beating (nutlin-3a was only administered during the first 24 hours of Torin1 treatment). Cells harvested on final day of treatment, BJRiPS-CMs. […] DMSO indicates dimethylsulfoxide; mTOR, mechanistic target of rapamycin; and TNNT2+ BJRiPS-CMs, troponin T2, cardiac type-positive BJ fibroblast-derived RNA-induced pluripotent stem cell-derived cardiomyocytes.
as §2

cardiomyocytes = experiment: Flow cytometry in 2D culture (TNNT2, MitoTracker Red CMXRos, superoxide signal); assay type: cell-based, human; conditions: FACS, FIG. 8
Description: FACS N=3/group, MitoTracker Red CMXRos flow cytometry, 1-way ANOVA with Tukey's multiple comparisons test.
Reactive oxygen species may regulate cardiomyocyte maturation. FACS, n=3/group.

[8] = treatment of iPSC-CMs in 3D culture

## CCC(=O)N1CCN(c2ccc(-n3c(=O)ccc4cnc5ccc(-c6cnc7ccccc7c6)cc5c43)cc2C(F)(F)F)CC1 [Torin1]
[1]; Torin1 for 7 days starting about 2 days after onset of beating
  cellular quiescence: increases
[1]; flow cytometry, Gibco iPS-CMs, one-way ANOVA, FIG. 10D
  percentage of TNNT2+ CMs out of live cell population: n.s.
BJRiPS-CMs [2]; Torin1 10 nM or 200 nM for 7 days
  expression selected ion channels: increases
BJRiPS-CMs [2]; Torin1 10, 50 or 200 nM for 7 days
  expression of sarcomere genes (MYH6, MYH7, TNNT2, TNNI3): increases
[3]
  contractility: enhances
BJRiPS-CMs [4]
  sarcomere length: n.s
BJRiPS-CMs [5]
  oxygen consumption rate: increases
BJRiPS-CMs [6]
  mitochondrial polarization: increases
UCSD-CMs; FluoVolt, FIG. 13F
  peak rise time of the action potential profile: increases
UCSD-CMs; FluoVolt, FIG. 13G
  downstroke velocity of the action potential profile: increases
UCSD-CMs; FluoVolt, versus control, unpaired t-test, FIG. 13H
  CTD25 time: n.s.
UCSD-CMs; representative profile versus control, FIG. 13E
  plateau phase of the action potential profile: more prolonged
Gibco iPS-CM
  p53 expression: increases
PSC-CMs
  cellular quiescence: induces
  maturation of cardiomyocytes: enhances

## COc1ccc(C2=N[C@@H](c3ccc(Cl)cc3)[C@@H](c3ccc(Cl)cc3)N2C(=O)N2CCNC(=O)C2)c(OC(C)C)c1 [nutlin-3a]
iPSC-CMs; 3D culture, flow cytometry, FIG. 2A
  percentage of TNNT2+ iPSC-CMs: increases
iPSC-CMs; 3D culture, flow cytometry, FIG. 2B
  mean fluorescence intensity (MFI) of TNNT2: increases
iPSC-CMs; 3D culture, flow cytometry, FIG. 2C
  % of TNNI3+: increases
iPSC-CMs; 3D culture, flow cytometry, FIG. 2D
  mean fluorescence intensity of TNNI3: increases
iPSC-CMs; 3D culture, flow cytometry, FIG. 2E / FIG. 3A
  percentage of TNNT2+ iPSC-CMs expressing Kir2.1: increases
iPSC-CMs; 3D culture, flow cytometry, FIG. 2F / FIG. 3B
  mean fluorescence intensity (MFI) of Kir2.1: increases
iPSC-CMs; 3D culture, flow cytometry, FIG. 2G / FIG. 3C
  % of p53+ TNNT2+ iPSC-CMs: increases
iPSC-CMs; 3D culture, flow cytometry, FIG. 3D
  mean fluorescence intensity of p53: increases
iPSC-CMs; [8]
  expression of Kir2.1: increases
  expression of p53: increases
BJRiPS-CMs [7]; nutlin-3a 10 μmol/L during first 24 hours of Torin1 200 nmol/L for 7 days
  TNNI3 expression, effect together with Torin1: synergistic effect
BJRiPS-CMs [7]; nutlin-3a 10 μmol/L for 24 hours
  p53 (Western analysis): upregulation
BJRiPS-CMs [7]; nutlin-3a 10 μmol/L for 24 hours, about 2 days after onset of beating, Western densitometry
  TNNI3 expression: enhances
cardiomyocytes
  mean fluorescence intensity of superoxide signal: increases
